In the assay the test system is M. tuberculosis (21 clinical and CDC strains, pan-sensitive and multidrug resistant). Nature of the assay: microbe, parasite or virus in culture. Format: cell-based, Mycobacterium tuberculosis.

Values after ≈ are worked out from the molar mass of the structure shown.

With `Cc1ccc(C)c(OCCCC(C)(C)C(=O)O)c1` [GFZ, Gemfibrozil], the “difference in sensitivity among the 21 strains” value is listed as “No greater than a two fold difference”. The MIC (Mycobacterium tuberculosis, 504 h, read-out: MIC (GFZ concentration at which no growth was seen)) lay in the range of 100 to 200 mg/L (≈ 399 to 799 µM).

Source of the values: US6713043B2 (priority 1996, dated 2004).
